We go through eight compounds from article PMC6745035, “Novel tetrahydroacridine derivatives with iodobenzoic moieties induce G0/G1 cell cycle arrest and apoptosis in A549 non-small lung cancer and HT-29 colorectal cancer cells” (Molecular and Cellular Biochemistry, 2019).

The term IC50 denotes the point on the concentration scale where inhibition reaches its midpoint. The viability is a read-out of living cells in per cent, often relative to untreated cells.

The test system of assay [1] is HT-29 cells. As to the kind of experiment: MTT cytotoxicity assay, HT-29. Type of assay: cell-based. The settings on record: Homo sapiens, HT-29; MTT, 24 h incubation; read-out: IC50 µM ± SD against HT-29. The source says: (§1) The MTT assay was used to evaluate cell metabolic activity. The test principle is based on the determination of cell viability by measuring the metabolic activity in mitochondria. Enzymatically active mitochondria reduce the water-soluble MTT (3-(4,5-dimethylthiazol-2-yl)-2,5 diphenyltetrazoliumbromide) to blue–violet insoluble formazan. The number of viability cells is proportional to the colour intensity determined by photometric measurements (an analytical wavelength 570 nm) after dissolving the formazan in Dimethylsulfoxide (DMSO) (Serva) and Sorensen’s glycine buffer. MTT (Sigma Aldrich) was dissolved in Phosphate Buffered Saline (PBS) (PAN-Biotech) at a concentration of 0.5 mg/mL. Sorensen’s glycine buffer is made of 0.1 M glycine and 0.1 M NaCl, at pH 10.5. Studied compounds were dissolved in DMSO in order to receive stock solutions.
(§2) For the assay, cells were seeded into 96-well plates at density 10^4 cells per well and cultured for 24 h at 37 °C and 5% CO2. Then medium was removed, and cells were exposed to the 100 µL of the compound solutions over a range of concentrations (final DMSO concentration was below 0.2%) or nothing but culture medium (blank control). Pure DMSO was used as a positive control. After 24 h of incubation with the compound solutions, medium was removed and 50 µL of the MTT solution was added to each well and incubated in the dark for additional 2 h at 37 °C. Then the MTT solution was carefully removed and 100 µL of DMSO was added. Plates were incubated for 10 min at room temperature. Finally, 5 µL of Sorensen Buffer was added to each well. Plate was swayed, and the absorbance was measured by using microplate reader (Synergy H1, BioTek, Winooski, VT, USA) at a wavelength of 570 nm. The cell viability was expressed as a percentage of the control values (blank). The experiments were done in triplicate.

Assay [2] relates to A549 cells. As to the kind of experiment: MTT cytotoxicity assay, A549. Particulars: Homo sapiens, A549; MTT, 24 h incubation; read-out: IC50 µM ± SD against A549. Type of assay: cell-based, human.
Source text: A549 cell line (lung carcinoma from human) (European Collection of Cell Culture) and HT-29 cell line (colorectal adenocarcinoma from human) (American Type Culture Collection) were chosen to evaluate the cytotoxicity of novel compounds.
as §1, §2
(In general: Formazan colour is commonly taken as a measure of viable cells.)

Assay [3] has as its target T1, hyaluronidase from bovine testes Type I-S (Bos taurus, UniProt Q2YDK3).
T1 construct: purchased Sigma Aldrich; host or cells: bovine testes (tissue-derived preparation)
T1 sequence (Q2YDK3 36-553): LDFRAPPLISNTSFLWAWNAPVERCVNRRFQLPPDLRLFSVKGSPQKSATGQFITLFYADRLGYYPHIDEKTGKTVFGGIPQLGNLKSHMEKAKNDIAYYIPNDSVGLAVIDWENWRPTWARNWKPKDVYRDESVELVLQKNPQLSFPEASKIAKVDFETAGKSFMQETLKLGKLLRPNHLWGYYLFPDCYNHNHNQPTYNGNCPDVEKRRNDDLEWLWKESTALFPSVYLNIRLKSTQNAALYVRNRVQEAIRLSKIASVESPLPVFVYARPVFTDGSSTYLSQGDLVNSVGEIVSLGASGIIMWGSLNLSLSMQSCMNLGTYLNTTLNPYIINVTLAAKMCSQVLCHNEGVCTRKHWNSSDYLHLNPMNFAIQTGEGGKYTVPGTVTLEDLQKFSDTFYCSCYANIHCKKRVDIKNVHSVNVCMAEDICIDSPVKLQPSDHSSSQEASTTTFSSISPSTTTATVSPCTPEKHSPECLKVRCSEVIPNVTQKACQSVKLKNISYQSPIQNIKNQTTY
As to the kind of experiment: Hyaluronidase inhibition assay (turbidimetric). The format is biochemical. Particulars: read-out: HYAL IC50 ± SD.

In assay [4] the test system is SH-SY5Y cells. As to the kind of experiment: Cytoprotection against rotenone/oligomycin A, pre-incubation, MTT.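 Further: Toxic mixture Rotenone 30 µM plus Oligomycin A 10 µM.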 Type of assay: cell-based, human. Particulars: pre-incubation with rotenone/oligomycin A. As for the experimental part:
Rotenone with oligomycin A (R/O) were taken to induce mitochondrial ROS by blocking of complexes I and V of the mitochondrial electron transport chain. It causes free radical production and blockade of ATP synthesis. In the pre-incubation experiment, it could be assessed whether the compounds have cytoprotective properties due to the activation of endogenous antioxidant pathways. In the co-incubation could be shown whether compounds are free-radical scavengers. MTT assay was a test of choice, because in this assay mitochondrial activity is measured. […] It can be determined whether novel compound would protect cells from both apoptotic and necrotic death resulting from the increase of intracellular ROS. In both experiments, trolox was used as a reference compound. […] After this time, toxic mixture was added, and cells were maintained for an additional 24 h in the presence of the compounds.

For assay [5], the system named is SH-SY5Y cells. As to the kind of experiment: Cytoprotection against H2O2 (100 µM), MTT.
The subject of assay [6] is SH-SY5Y cells. The assay can be described thus: Cytoprotection against rotenone/oligomycin A, co-incubation, MTT. Type of assay: cell-based, human. The settings on record: co-incubation with rotenone/oligomycin A. As for the experimental part: In the co-incubation assay, compounds and mixture of R/O were incubated together for 24 h. […] It turned out that none of the compounds (apart from 1i at the concentration of 0.001 µM and cytoprotection of 2.99%) had cytoprotective properties in the whole range of concentrations (Fig. 17). Compounds were not able to capture free radicals; therefore they cannot be classified as free-radical scavengers.

In assay [7] the test system is supercoiled pUC19 DNA. Particulars: 100 µM; human Topoisomerase I.
In assay [8] the test system is EA.hy926 cells. The assay can be described thus: MTT cytotoxicity assay, EA.hy926. The format is cell-based, human. Particulars: Homo sapiens, EA.hy 926; MTT, 24 h incubation; read-out: IC50 µM ± SD against EA.hy926.
Source text: The EA.hy926 cells (the human umbilical vein, somatic cell hybrid) (American Type Culture Collection) are immortalized human umbilical vein endothelial cells. They have morphological, phenotypic and functional characteristics of human endothelial cells, without the limited lifespan. This cell line has been considered as a good model for anticancer drug screening and was chosen to evaluate the endothelial cytotoxicity of novel compounds.
as §1, §2

For `O=C(NCCNc1c2c(nc3ccccc13)CCCC2)c1ccccc1I` [Compound 1a], the IC50 in assay [1] is 17.3 ± 1.22 µM; in assay [2] it was 36 ± 1.74 µM; in assay [3], 234 ± 7.9 µM.

Take `O=C(NCCCNc1c2c(nc3ccccc13)CCCC2)c1ccc(I)cc1` [Compound 1h]: the IC50 in assay [1] is 9.4 ± 1.65 µM; in assay [2], 21.4 ± 1.54 µM; in assay [3] it was 201 ± 8.36 µM.

`O=C(NCCNc1c2c(nc3ccccc13)CCCC2)c1ccc(I)cc1` [Compound 1g]: the figures for the IC50 in assay [1], in assay [2] and in assay [3] were 8.16 ± 0.44 µM, 20.8 ± 1.58 µM and 191 ± 10.8 µM, respectively.

For the compound `O=C(NCCNc1c2c(nc3ccccc13)CCCC2)c1cccc(I)c1` [Compound 1d], the IC50 in assay [1] amounted to 7.62 ± 0.19 µM; in assay [2], 41.2 ± 1.27 µM; in assay [3], 300 ± 6.3 µM.

Consider `Cc1c(C)c2c(c(C)c1O)CCC(C)(C(=O)O)O2` (stereo not drawn) [Trolox, 6-hydroxy-2,5,7,8-tetramethylchroman-2-carboxylic acid, reference compound], for which the Cytoprotection in assay [4] (0.001 µM) is 0.98%; in assay [4] (1 µM) it was 0.53%; in assay [6] (0.001 µM), 9.08%; in assay [6] (0.01 µM) it was 8.18%; in assay [6] (0.1 µM) it was 4.02%; in assay [6] (1 µM) it was 6.12%. The “Cytoprotection against H2O2” value in assay [5] (H2O2 100 µM, 1 µM) is 96.38%. Also, in assay [5] (Homo sapiens, 24 h, read-out: Cells viability (%) ± SD after 24 h of incubation with compound and H2O2), the viability at 1 µM is 99.4 ± 9.81%.

Turning to `COc1cc(NS(C)(=O)=O)ccc1Nc1c2ccccc2nc2ccccc12` [amsacrine, reference compound], in assay [7], the “Intercalation: supercoiled pUC19 DNA band (in words)” value is reported as “stronger intercalator than EB”.

On to Heparin [reference compound], for which, in assay [3], the IC50 turned out to be 56.4 ± 0.78 µM.

Turning to `O=c1[nH]cc(F)c(=O)[nH]1` [5-Fluorouracil, reference compound], the values for the IC50 in assay [1] and in assay [8] were 1630 ± 49.3 µM and over 1800 µM, respectively.
